Assay results as given in US20230321054A1, “COMPOSITIONS AND METHODS FOR CANCER AND TUMOR TREATMENT” (Washington University, priority 2022, published 2023).
Entries after “also recorded” stand apart in the source; their conditions may differ.

Columns and labels:
[1] = system: tumor-liver alanine cycle; assay: [U-13C] glucose isotope tracing / LC/MS metabolomics in drug-treated BRAF/p53 zebrafish (tumor-liver alanine cycling); type: in vivo
Experimental: For all isotope tracing experiments, zebrafish were fasted for 24 h to empty the digestive tract prior to labeling. […] During steady-state labeling experiments, zebrafish were allowed to swim freely in facility water containing the corresponding stable isotopes at the aforementioned concentrations, in addition to 2% penicillin/streptomycin (Life Technologies). For isotope tracing via intraperitoneal injection, zebrafish were injected using a previously described method. Briefly, anesthetized fish were quickly dried and weighed. Zebrafish were then placed into the trough of a wet precut sponge, with the abdomen facing up and gills secured in the trough. A 35G beveled needle and NanoFil 10 µL syringe (World Precision Instruments) was carefully inserted midline near the pelvic girdle, and a [U-^13C] glucose treatment solution (0.5 mg/g) was slowly dispensed. After injection, fish were placed in 28° C. facility water and monitored for recovery from anesthesia (typically 5-10 seconds). Throughout the experiment, each fish was kept in an individual tank to allow for tracking.
To extract metabolites from serum, samples were diluted 1:15 with methanol:acetonitrile:water (2:2:1) at -20° C., vortexed for 10 s, and incubated at -20° C. for 1 h. Following incubation, metabolite extracts were centrifuged at 20,000 g and 4° C. for 10 min, and the supernatant was transferred into an LC/MS vial for same-day analysis. To extract metabolites from zebrafish tissues, frozen samples were ground in 1.5 mL microcentrifuge tubes with a disposable pellet pestle (Fisherbrand). The pellet pestle was placed in liquid nitrogen prior to sample grinding, and the microcentrifuge tube (containing tissue) was submerged in liquid nitrogen for the entirety of tissue grinding. […] The powderized tissue was mixed with -20° C. methanol:acetonitrile:water (2:2:1) and subjected to two cycles of freezing in liquid nitrogen (1 min), thawing in 25° C. water (10 s), sonication (5 min), and vortexing (30 s). Samples were then incubated at -20° C. for 1 h. […]

[2] = system: melanoma tumors of BRAF/p53 zebrafish; assay: Tumor size by digital calipers in melanoma-bearing BRAF/p53 zebrafish; type: in vivo
Experimental: Wild-type (WT) fish were inbred AB strain (sjA). p53-/- and transgenic mitfa-BRAFV600E¬ lines were crossed to produce melanoma-bearing fish (referred to as BRAF/p53), using a previously described method. All fish were reared according to standard laboratory procedures. Fish were kept in an indoor environment at a temperature of 28 ± 1° C. with a 14:10-h light:dark circadian cycle. Both female and male fish were used for experiments at random. Experiments were conducted with age-matched animals (i.e., within 2 weeks of age). To assay tumor growth, melanoma dimensions were measured by using digital calipers. Tumor size was approximated as the volume of a half ellipsoid, ⅔ πabc, where a, b, and c represent the radii of tumor length, width, and height respectively.
Vemurafenib was dissolved in DMSO, and vemurafenib solution or DMSO alone (vehicle) was delivered via intraperitoneal injection following a previously described protocol detailed above. Throughout the experiment, each fish was kept in an individual tank to allow for tracking. […]

[3] = system: alanine cycling in WT zebrafish; assay: [U-13C] glucose isotope tracing in vemurafenib-treated WT zebrafish; type: in vivo; conditions: 100 mg/kg/day, 4 consecutive days, vs vehicle
Experimental: For all isotope tracing experiments, zebrafish were fasted for 24 h to empty the digestive tract prior to labeling. To determine the [U-^13C] glucose concentration for isotopic steady-state labeling, concentrations between 5 - 20 mM were tested. […] Similarly, concentrations between 1 - 10 mM of [U-^13C] glutamine were tested for steady-state labeling. […] For ^15N-BCAA labeling experiments, 2 mM each [^15N] leucine, [^15N] isoleucine, and [^15N] valine were concurrently supplemented to facility water. For ^13C-BCAA labeling experiments, 4 mM each of [U-^13C] leucine, [U-^13C] isoleucine, and [U-^13C] valine were concurrently supplemented to facility water. During steady-state labeling experiments, zebrafish were allowed to swim freely in facility water containing the corresponding stable isotopes at the aforementioned concentrations, in addition to 2% penicillin/streptomycin (Life Technologies). For isotope tracing via intraperitoneal injection, zebrafish were injected using a previously described method. Briefly, anesthetized fish were quickly dried and weighed. Zebrafish were then placed into the trough of a wet precut sponge, with the abdomen facing up and gills secured in the trough. […] After injection, fish were placed in 28° C. facility water and monitored for recovery from anesthesia (typically 5-10 seconds). […]

[4] = humans, mice, and zebrafish; cited from earlier work
[5] = system: alanine aminotransferase (ALT); assay: [U-13C] BCAA labeling and metabolite pool sizes after ALT inhibition in BRAF/p53 zebrafish; type: in vivo; conditions: 600 µM in water, 10 days, vs vehicle
Experimental: For all isotope tracing experiments, zebrafish were fasted for 24 h to empty the digestive tract prior to labeling. To determine the [U-^13C] glucose concentration for isotopic steady-state labeling, concentrations between 5 - 20 mM were tested. […] Similarly, concentrations between 1 - 10 mM of [U-^13C] glutamine were tested for steady-state labeling. […] For ^15N-BCAA labeling experiments, 2 mM each [^15N] leucine, [^15N] isoleucine, and [^15N] valine were concurrently supplemented to facility water. For ^13C-BCAA labeling experiments, 4 mM each of [U-^13C] leucine, [U-^13C] isoleucine, and [U-^13C] valine were concurrently supplemented to facility water. During steady-state labeling experiments, zebrafish were allowed to swim freely in facility water containing the corresponding stable isotopes at the aforementioned concentrations, in addition to 2% penicillin/streptomycin (Life Technologies). For isotope tracing via intraperitoneal injection, zebrafish were injected using a previously described method. Briefly, anesthetized fish were quickly dried and weighed. Zebrafish were then placed into the trough of a wet precut sponge, with the abdomen facing up and gills secured in the trough. A 35G beveled needle and NanoFil 10 µL syringe (World Precision Instruments) was carefully inserted midline near the pelvic girdle, and a [U-^13C] glucose treatment solution (0.5 mg/g) was slowly dispensed. After injection, fish were placed in 28° C. facility water and monitored for recovery from anesthesia (typically 5-10 seconds). Throughout the experiment, each fish was kept in an individual tank to allow for tracking.
To extract metabolites from serum, samples were diluted 1:15 with methanol:acetonitrile:water (2:2:1) at -20° C., vortexed for 10 s, and incubated at -20° C. for 1 h. Following incubation, metabolite extracts were centrifuged at 20,000 g and 4° C. for 10 min, and the supernatant was transferred into an LC/MS vial for same-day analysis. To extract metabolites from zebrafish tissues, frozen samples were ground in 1.5 mL microcentrifuge tubes with a disposable pellet pestle (Fisherbrand). The pellet pestle was placed in liquid nitrogen prior to sample grinding, and the microcentrifuge tube (containing tissue) was submerged in liquid nitrogen for the entirety of tissue grinding. We note that microcentrifuge tubes were labeled and weighed prior to tissue harvest and then weighed again following tissue grinding. The powderized tissue was mixed with -20° C. methanol:acetonitrile:water (2:2:1) and subjected to two cycles of freezing in liquid nitrogen (1 min), thawing in 25° C. water (10 s), sonication (5 min), and vortexing (30 s). Samples were then incubated at -20° C. for 1 h. For every 1 mg of tissue wet weight, 40 µL of extraction solvent was added. Following protein precipitation, tissue extracts were centrifuged at 20,000 g and 4° C. for 10 min, and the supernatant was transferred into an LC/MS vial for same-day analysis.
Ultra-high performance LC (UHPLC)/MS was performed with a Thermo Scientific Vanquish Horizon UHPLC system interfaced with a Thermo Scientific Orbitrap ID-X Tribrid Mass Spectrometer (Waltham, MA). Hydrophilic interaction liquid chromatography (HILIC) was conducted with a SeQuant ZIC-pHILIC guard column (20 mm × 2.1 mm, 5 µm) connected to a SeQuant ZIC-pHILIC column (100 mm × 2.1 mm, 5 µm; EMD Millipore, Burlington, MA). Chromatographic solvents were adapted from a previously described work. […]

[6] = 50 µM in tank water, 6 days, vs DMSO

## CCN(c1nc(N)c(C(=O)N=C(N)N)nc1Cl)C(C)C [EIPA, 5-(N-ethyl-N-isopropyl)amiloride]
[1]; [6]
  alanine labeling in the tumor: did not affect
  hepatic gluconeogenesis (M3 labeling of glucose in the liver and serum): did not affect

## CCCS(=O)(=O)Nc1ccc(F)c(C(=O)c2c[nH]c3ncc(-c4ccc(Cl)cc4)cc23)c1F [vemurafenib]
[2]; 100 mg/kg/day i.p., after 10 days
  tumors reduced in size: > 95%
[1]; 100 mg/kg/day i.p., 4 days, vs vehicle, 10 mM [U-13C] glucose 24 h
  reduction of M3 labeling of alanine in the tumor: ~ 2 fold
[3]
  13C-labeling in metabolites from the circulation, liver, or muscle: No differences; also recorded: does not lead to off-target metabolic effects
[4]
  toxicity and tolerability: minimal toxicity and high tolerability

## N[C@@H](CCl)C(=O)O [β-chloroalanine, β-chloro-L-alanine]
[2]; β-chloroalanine in water, 10 days
  reduction in tumor size: 50%
[5]
  BCAAs in serum (pool size): accumulation
  BCAAs in tumor (pool size): accumulation
  contribution that [U-13C] BCAAs made to the TCA cycle in tumors: significantly reduced
  levels of alanine in tumor, serum, and liver: decreased
  levels of circulating glucose: decreased
